Usually IC50 stands for the midpoint of a concentration-inhibition curve. A higher IC50 goes with lower potency.

Test [1] concerns the target T1, MKNK1 (Homo sapiens, UniProt Q9BUB5, T385D).
T1 construct: GST (N); purchased Carna Biosciences 02-145; host or cells: insect cells (baculovirus expression system)
Put plainly: MKNK1 kinase assay (MKNK1 TR-FRET assay). The format is biochemical. The note with it: 10 μM ATP, 15 min preincubation. Background: Time-resolved FRET reads energy transfer from a long-lived donor to a nearby acceptor.

In test [2] the target is T1, MKNK1. Kind of test: MKNK1 kinase high ATP assay (TR-FRET-based). The format is biochemical. The note with it: 2 mM ATP, 15 min preincubation. The gist of the method:
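GST-tagged full-length human MKNK1 (aa 1-424, T344D) from insect cells, preincubated with compound 15 min at 22 °C. Reaction 30 min at 22 °C with 2 mM ATP and 0.06 μM biotinylated peptide in HEPES pH 7.5, Mg2+, DTT. Phosphopeptide detected by TR-FRET (665/622 ratio) with anti-pS6 (pSer236) antibody; normalised to no-inhibitor and no-enzyme controls.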

T1 sequence (Q9BUB5 1-424 isoform Q9BUB5-2 T344D): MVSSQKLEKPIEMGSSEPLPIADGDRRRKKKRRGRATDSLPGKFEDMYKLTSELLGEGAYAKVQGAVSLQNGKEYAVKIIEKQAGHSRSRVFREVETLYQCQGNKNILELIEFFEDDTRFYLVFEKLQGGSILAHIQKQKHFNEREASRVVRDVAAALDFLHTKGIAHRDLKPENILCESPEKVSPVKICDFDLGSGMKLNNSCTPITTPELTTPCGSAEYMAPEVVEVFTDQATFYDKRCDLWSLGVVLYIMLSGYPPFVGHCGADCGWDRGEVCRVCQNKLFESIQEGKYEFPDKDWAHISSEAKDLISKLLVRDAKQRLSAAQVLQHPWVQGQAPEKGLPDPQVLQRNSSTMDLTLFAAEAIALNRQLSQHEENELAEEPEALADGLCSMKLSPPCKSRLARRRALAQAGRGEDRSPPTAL

With `CC(=O)NC(COc1ccc2ncc(-c3cc4ccccc4o3)n2n1)c1cccnc1` (stereo not drawn) [Example I-34, N-[2-{[3-(1-Benzofuran-2-yl)imidazo[1,2-b]pyridazin-6-yl]oxy}-1-(pyridin-3-yl)ethyl]acetamide], the IC50 turned out to be 16.4 nM at MKNK1 [1] (Table 1a) and 45.1 nM against MKNK1 [2] (Table 2a).
As for `CCN(CCOC)c1nccc2oc(-c3cnc4ccc(OCCC[S@@](C)(=O)=NC#N)nn34)cc12` [III-137, [{3-[(3-{4-[ethyl(2-methoxyethyl)ami-no]furo[3,2-c]pyridin-2-yl}imidazo[1,2-b]pyridazin-6-yl)oxy]propyl}(methyl)oxido-λ^6-sulfanylidene]cyanamide], the IC50 against MKNK1 [1] (Table 1c) worked out at 2.7 nM; against MKNK1 [2] (Table 2c) it was 0.6 nM.
Turning to `O=C(NCCOc1ccc2ncc(-c3cc4ccccc4o3)n2n1)c1ccccc1Cl` [Example I-65, N-(2-{[3-(1-Benzofuran-2-yl)imidazo[1,2-b]-pyridazin-6-yl]oxy}ethyl)-2-chlorobenzamide], the IC50 against MKNK1 [1] (Table 1a) was 5.2 nM; against MKNK1 [2] (Table 2a), 11.8 nM.
Take `C[C@@H](N)COc1ccc2ncc(-c3cc4c(N5CCOCC5)nccc4o3)n2n1` [III-1, (2R)-1-({3-[4-(Morpholin-4-yl)furo[3,2-c]pyridin-2-yl]imidazo[1,2-b]pyridazin-6-yl}oxy)propan-2-amine]: the IC50 is 8.4 nM on MKNK1 [1] (Table 1c) and 19.5 nM against MKNK1 [2] (Table 2c).
As for `CC(Oc1ccc2ncc(-c3cc4ccccc4o3)n2n1)C(N)=O` (stereo not drawn) [Example I-25, 2-{[3-(1-Benzofuran-2-yl)imidazo[1,2-b]pyridazin-6-yl]oxy}propanamide], the IC50 against MKNK1 [1] (Table 1a) is 4.7 nM; against MKNK1 [2] (Table 2a), 20.8 nM.
Take `O=C1CC[C@H](COc2ccc3ncc(-c4cc5c(N6CCC[C@@H]6CO)nccc5o4)n3n2)N1` [III-67, (5R)-5-{[(3-{4-[(2R)-2-(Hydroxymethyl)pyrrolidin-1-yl]furo[3,2-c]pyridin-2-yl}imidazo[1,2-b]pyridazin-6-yl)oxy]methyl}pyrrolidin-2-one]: the IC50 at MKNK1 [1] (Table 1c) amounted to 10.7 nM; at MKNK1 [2] (Table 2c), 11 nM.
Turning to `COc1ccc2ncc(-c3cc4c(N5CCN(c6ccccc6)CC5)cccc4o3)n2n1` [II-22, 6-Methoxy-3-[4-(4-phenylpiperazin-1-yl)-1-benzofuran-2-yl]imidazo[1,2-b]-pyridazine], the IC50 was 371 nM on MKNK1 [1] (Table 1b) and 422 nM against MKNK1 [2] (Table 2b).
Turning to `CC1(C)CN(c2nccc3oc(-c4cnc5ccc(OCC(F)(F)F)nn45)cc23)CCN1` [III-126, 3-[4-(3,3-dimethylpiperazin-1-yl)furo[3,2-c]pyridin-2-yl]-6-(2,2,2-trifluoroethoxy)imidazo [1,2-b]pyridazine], the IC50 stood at 5.3 nM on MKNK1 [1] (Table 1c) and 2.6 nM on MKNK1 [2] (Table 2c).
In the case of `C[C@@H]1COCCN1c1cccc2oc(-c3cnc4ccc(OC[C@H]5CCC(=O)N5)nn34)cc12` [II-49, (5R)-5-{[(3-{4-[(3R)-3-methylmorpholin-4-yl]-1-benzofuran-2-yl}imidazo[1,2-b]pyridazin-6-yl)oxy]methyl}pyrrolidin-2-one], the 50% inhibitory concentration (IC50) is 5.2 nM against MKNK1 [1] (Table 1b) and 11.9 nM against MKNK1 [2] (Table 2b).
With `O=C(c1ccc[nH]1)N1CCC[C@H]1CCOc1ccc2ncc(-c3cc4ccccc4o3)n2n1` [Example I-61, [(2S)-2-(2-{[3-(1-Benzofuran-2-yl)imidazo[1,2-b]-pyridazin-6-yl]oxy}ethyl)pyrrolidin-1-yl](1H-pyrrol-2-yl)methanone], the figures for the IC50 on MKNK1 [1] (Table 1a) and against MKNK1 [2] (Table 2a) were 2.9 nM and 6.7 nM, respectively.
In the same order, the values of `Cn1ccc(C(=O)N2CCC[C@H]2CCOc2ccc3ncc(-c4cc5ccccc5o4)n3n2)n1` [Example I-50, [(2S)-2-(2-{[3-(1-Benzofuran-2-yl)imidazo[1,2-b]-pyridazin-6-yl]oxy}ethyl)pyrrolidin-1-yl](1-methyl-1H-pyrazol-3-yl)methanone] are 2.4 nM and 3.2 nM.
For `O=C(c1cnoc1)N1CCC[C@H]1CCOc1ccc2ncc(-c3cc4ccccc4o3)n2n1` [Example I-45, [(2S)-2-(2-{[3-(1-Benzofuran-2-yl)imidazo[1,2-b]-pyridazin-6-yl]oxy}ethyl)pyrrolidin-1-yl](1,2-oxazol-4-yl)methanone], in that order: 1.3 nM and 1.8 nM.
Turning to `C[C@H](N)COc1ccc2ncc(-c3cc4c(N5CCOC[C@H]5C)nccc4o3)n2n1` [III-25, (2S)-1-[(3-{4-[(3R)-3-Methylmorpholin-4-yl]furo[3,2-c]pyridin-2-yl}imidazo-[1,2-b]pyridazin-6-yl)oxy]propan-2-amine], the values for the half-maximal inhibitory concentration (IC50) on MKNK1 [1] (Table 1c) and against MKNK1 [2] (Table 2c) were 9.2 nM and 13.7 nM, respectively.
On to `C[C@H](N)COc1ccc2ncc(-c3cc4c(N5CCOCC5)cccc4o3)n2n1` [II-2, (2S)-1-({3-[4-(Morpholin-4-yl)-1-benzofuran-2-yl]imidazo[1,2-b]pyridazin-6-yl}oxy)propan-2-amine], for which the figures for the concentration for half-maximal inhibition (IC50) at MKNK1 [1] (Table 1b) and against MKNK1 [2] (Table 2b) were 16 nM and 36 nM, respectively.
With `CC(C)(C)C(=O)N1CCC[C@H]1CCOc1ccc2ncc(-c3cc4cc(Cl)ccc4o3)n2n1` [Example I-40, 1-[(2S)-2-(2-{[3-(5-Chloro-1-benzofuran-2-yl)imidazo[1,2-b]pyridazin-6-yl]-oxy}ethyl)pyrrolidin-1-yl]-2,2-dimethylpropan-1-one], the IC50 at MKNK1 [1] (Table 1a) turned out to be 26 nM; at MKNK1 [2] (Table 2a), 76.4 nM.
For `O=C(NCCOc1ccc2ncc(-c3cc4ccccc4o3)n2n1)C1CCCO1` (stereo not drawn) [Example I-78, N-(2-{[3-(1-Benzofuran-2-yl)imidazo[1,2-b]-pyridazin-6-yl]oxy}ethyl)tetrahydrofuran-2-carboxamide], in that order: 6.7 nM and 23 nM.
Turning to `O=C(CO)NCCOc1ccc2ncc(-c3cc4ccccc4o3)n2n1` [Example I-67, N-(2-{[3-(1-Benzofuran-2-yl)imidazo[1,2-b]-pyridazin-6-yl]oxy}ethyl)-2-hydroxyacetamide], the IC50 at MKNK1 [1] (Table 1a) was determined as 6.6 nM; on MKNK1 [2] (Table 2a) it was 20.3 nM.
On to `COCCN(C)c1nccc2oc(-c3cnc4ccc(OCCCS(C)(=O)=O)nn34)cc12` [III-52, N-(2-Methoxyethyl)-N-methyl-2-{6-[3-(methylsulfonyl)propoxy]imidazo[1,2-b]pyridazin-3-yl}furo[3,2-c]pyridin-4-amine], for which the IC50 on MKNK1 [1] (Table 1c) is 1.8 nM; at MKNK1 [2] (Table 2c), 3.7 nM.
For `O=C1CC[C@H](COc2ccc3ncc(-c4cc5c(N6CCN(c7ccccc7)CC6)nccc5o4)n3n2)N1` [III-76, (5R)-5-[({3-[4-(4-Phenylpiperazin-1-yl)furo[3,2-c]pyridin-2-yl]imidazo[1,2-b]pyridazin-6-yl}oxy)methyl]pyrrolidin-2-one], in that order: 3.5 nM and 6 nM.
In the same order, the values of `C[C@H]1CN(c2nccc3oc(-c4cnc5ccc(OC[C@H]6CCC(=O)N6)nn45)cc23)CCO1` [III-123, (5R)-5-{[(3-{4-[(2S)-2-methylmorpholin-4-yl]furo[3,2-c]pyridin-2-yl}imidazo[1,2-b]pyridazin-6-yl)oxy]methyl}pyrrolidin-2-one] are 2.2 nM and 0.5 nM.
As for `O=C1CNC[C@H](COc2ccc3ncc(-c4cc5ccccc5o4)n3n2)N1` [Example I-42, (6R)-6-({[3-(1-Benzofuran-2-yl)imidazo[1,2-b]pyridazin-6yl]oxy}methyl)-piperazin-2-one], the IC50 is 14.2 nM at MKNK1 [1] (Table 1a) and 26.8 nM on MKNK1 [2] (Table 2a).

For the origin of these results see patent publication US20160287589A1, “SUBSTITUTED-IMIDAZOPYRIDAZINES” (BAYER PHARMA AKTIENGESELLSCHAFT, priority 2013, published 2016).
